Experimental data taken from US10827753B2, “Compositions and methods for controlling nematodes” (Monsanto Technology LLC, priority 2007, dated 2020).
Marks after values point to notes of the source that are not given here.

Columns and labels:
Meloidogyne incognita = experiment: M. incognita miniaturized greenhouse assay on cucumber seedlings (root galling); format: in vivo; conditions: 8 ppm; average of triplicate gall rating, scale 0-3 (% root mass galled)
How it was run: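 Compound in acetone/Triton X100 stock (5 mg/mL) diluted into water with 0.015% Triton X100 and applied to sand-planted sprouted cucumber seedlings; inoculated with 500 M. incognita eggs two days after planting. Roots harvested 10–12 days later; galling scored 0–3 by % root mass galled, averaged over triplicates, plus visual root phytotoxicity rating.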

[1] = tested on: sting (Belonolaimus longicaudatus) nematodes; experiment: Sting nematode bench top soil assay; format: in vivo
Procedure: Populations of sting (Belonolaimus longicaudatus) nematodes are maintained on St. Augustine turf grass on soil in 15-cm pots. At test initiation the turf is removed from the pots and the soil containing nematode eggs, juveniles, and adults is subdivided into pots each containing a volume of 125 cm^3′ The compounds to be tested are dissolved in 3 ml of acetone using 3, 6, or 15 mg to achieve equivalent surface area application rates of 2, 4, or 10 kg/ha, respectively. The 3 ml acetone stock solution is added to 30 ml of water, and 5 ml of that solution is used to drench each of 6 replicate test pots prepared as described above. The treated pots containing nematodes are incubated in the laboratory at ambient temperature of approximately 25° C. After 3 days the soil from each pot is washed onto a modified Baermann apparatus comprised of a screen supporting a layer of filter paper on which the soil sample is placed and set in a dish of water. The samples are then incubated at 25° C. for 24 hours to allow the live nematodes to migrate through the paper and screen and into a water reservoir to be collected for counting with a light microscope. Nematodes that have been killed or immobilized by the test compounds are not able to migrate into the reservoir.

[2] = tested on: Meloidogyne incognita (RKN); experiment: Seed treatment test of root knot nematode on cucumber plants; format: in vivo
Procedure: (§1) For a given concentration the chemical is dissolved in 500 ul of acetone and one gram of cucumber seed (RKN test) or soybean seed (SCN test) is added (e.g., 20 mg active ingredient in 500 ul acetone plus 1 gram of seed). The seed solutions are agitated until all seeds were thoroughly covered with the chemical solution. The acetone is then allowed to evaporate by air drying the seeds. The seeds are planted in 2-inch pots containing sandy soil and then the pots are inoculated with 1000 Meloidogyne incognita (RKN) or 1000 Heterodera glycines (SCN) eggs per pot three days after planting. Plants are rated for galling 14 days after egg inoculation for RKN or 28 days after egg inoculation for SCN.

[3] = tested on: CD-1/Swiss derived albino mice; format: in vivo; conditions: 500 mg/kg oral, three female mice, observed up to 14 days
Procedure: Acute oral toxicity testing was performed in mice in accordance with test method P203.UDP, as administered by Eurofins/Product Safety Laboratories (Dayton, N.J.). CD-1/Swiss derived albino mice were obtained and group housed in suspended solid bottom caging. The mice were fed rodent chow and filtered tap water was supplied ad libitum. Following acclimation to the laboratory setting, a group of animals was fasted overnight by removing food from the cages. After the fasting period, three female mice were selected based on vitality and initial body weights. The individual compound doses were calculated from these body weights.
The test substance was prepared as a 1% (50 mg/kg) or 5% (500 mg/kg) weight to weight (w/w) mixture in a 0.5% w/w solution of carboxymethylcellulose (CMC) in distilled water. A tissue homogenizer was used to create a homogeneous mixture. A dose of 50 or 500 mg/kg was administered to three healthy mice per dose level by oral intubation using a ball-tipped gavage needle attached to a syringe. After administration, the animals were returned to their cages, and feed was replaced immediately after dosing.
Body weights were recorded prior to initiation and on Days 7 and 14 or a soon as possible after death.

[4] = tested on: Heterodera glycines (SCN); experiment: Seed treatment test of soybean cyst nematode on soybean plants; format: in vivo; conditions: test a
Procedure: as §1

mice = conditions: cited from earlier work

Fc1ccc(-c2cnc(-c3cccs3)o2)cc1 [compound 4775]
8 ppm gall ratings (Meloidogyne incognita): 0 (0=0-5%)
Number of nematodes recovered from treated soil after 3 days incubation with the compound ([1]; 2 kg/ha): 15
Number of nematodes recovered from treated soil after 3 days incubation with the compound ([1]; 4 kg/ha): 7
Number of nematodes recovered from treated soil after 3 days incubation with the compound ([1]; 10 kg/ha): 4
percent control (galling reduction) relative to the control blank treatment ([2]; 20 mg ai/gram seed, cucumber seeds): 77%
mortality, signs of gross toxicity and behavioral changes [3]: all animals survived, gained body weight, and appeared active and healthy

abamectin
percent cyst reduction relative to control blank treatment ([4]; 0.375 mg al/gram seed): −14^a percent
percent cyst reduction relative to control blank treatment ([4]; 1.5 mg al/gram seed): −24^a percent
percent control (galling reduction) relative to the control blank treatment ([2]; 10 mg ai/gram seed, cucumber seeds (positive control)): 84%
oral LD50 in mice (mice): 13.6 mg/kg
